Laboratory results published in PMC7438494 (Communications Biology, 2020).
Where two headings read alike, the source gives them in different places.

Target: human ATP synthase (Homo sapiens, UniProt P00846+P05496)
Assay: biochemical
Assay type: biochemical
Conditions: Human Mito
[1] = 3rd exp (12-20-18), BDQ in DMSO, Bedaquiline 0.05 μM, 60 min
[2] = 4th exp (12-12-28), repeated point, Bedaquiline 5e-6 μM, 60 min
[3] = 4th exp (12-12-28), repeated point, Bedaquiline 5e-5 μM, 60 min

COc1nc2ccc(Br)cc2cc1[C@@H](c1ccccc1)[C@@](O)(CCN(C)C)c1cccc2ccccc12 [BDQ, Bedaquiline] gave a Cyanide sensitive (2nd exp (12-17-18), Bedaquiline 0.2 μM, 60 min) of 5.1889 nmol/min/mg, an activity at 0.2 µM (2nd exp (12-17-18), Bedaquiline 0.2 μM, 60 min, read-out: % activity) of 59.9% and a Cyanide sensitive (2nd exp (12-17-18), Bedaquiline 0.5 μM, 60 min) of 5.024 nmol/min/mg. It also gave an activity at 0.5 µM (2nd exp (12-17-18), Bedaquiline 0.5 μM, 60 min, read-out: % activity) of 58%, a Cyanide sensitive (2nd exp (12-17-18), Bedaquiline 0.65 μM, 60 min) of 2.666 nmol/min/mg and an activity at 0.65 µM (2nd exp (12-17-18), Bedaquiline 0.65 μM, 60 min, read-out: % activity) of 30.8%. The Cyanide sensitive (2nd exp (12-17-18), Bedaquiline 0.85 μM, 60 min) was 2.868 nmol/min/mg, the activity at 0.85 µM (2nd exp (12-17-18), Bedaquiline 0.85 μM, 60 min, read-out: % activity) was 33.1% and the Cyanide sensitive (2nd exp (12-17-18), Bedaquiline 2 μM, 60 min) was 0.0982 nmol/min/mg. The activity at 2 µM (2nd exp (12-17-18), Bedaquiline 2 μM, 60 min, read-out: % activity) was 1.13%, the Cyanide sensitive (2nd exp (12-17-18), Bedaquiline 5 μM, 60 min) was -0.8746 nmol/min/mg and the activity at 5 µM (2nd exp (12-17-18), Bedaquiline 5 μM, 60 min, read-out: % activity) was -10.1%. For the same compound, the activity at 0.005 µM (2 nd exp (18_12_17), BDQ 0.005 uM, read-out: Cyanide sensitive % activity) was 43.8%, the activity at 0.1 µM (2 nd exp (18_12_17), BDQ 0.1 uM, read-out: Cyanide sensitive % activity) was 62% and the activity at 0.2 µM (2 nd exp (18_12_17), BDQ 0.2 uM, read-out: Cyanide sensitive % activity) was 59.9%. It also gave an activity at 0.5 µM (2 nd exp (18_12_17), BDQ 0.5 uM, read-out: Cyanide sensitive % activity) of 58%, an activity at 0.65 µM (2 nd exp (18_12_17), BDQ 0.65 uM, read-out: Cyanide sensitive % activity) of 30.8% and an activity at 0.85 µM (2 nd exp (18_12_17), BDQ 0.85 uM, read-out: Cyanide sensitive % activity) of 33.1%. For the same compound, the activity at 2 µM (2 nd exp (18_12_17), BDQ 2 uM, read-out: Cyanide sensitive % activity) was 1.13%, the Cyanide sensitive (3rd exp (12-20-18), BDQ in DMSO, Bedaquiline 0.0005 μM, 60 min) was 7.6746 nmol/min/mg and the activity at 0.0005 µM (3rd exp (12-20-18), BDQ in DMSO, Bedaquiline 0.0005 μM, 60 min, read-out: % activity) was 81.5%. The Cyanide sensitive (3rd exp (12-20-18), BDQ in DMSO, Bedaquiline 0.005 μM, 60 min) was 8.333 nmol/min/mg, the activity at 0.005 µM (3rd exp (12-20-18), BDQ in DMSO, Bedaquiline 0.005 μM, 60 min, read-out: % activity) was 88.5% and the Cyanide sensitive [1] was 6.758 nmol/min/mg. For the same compound, the activity at 0.05 µM [1] was 71.8%, the Cyanide sensitive (3rd exp (12-20-18), BDQ in DMSO, Bedaquiline 0.1 μM, 60 min) was 8.103 nmol/min/mg and the activity at 0.1 µM (3rd exp (12-20-18), BDQ in DMSO, Bedaquiline 0.1 μM, 60 min, read-out: % activity) was 86%. The Cyanide sensitive (3rd exp (12-20-18), BDQ in DMSO, Bedaquiline 0.2 μM, 60 min) was 5.599 nmol/min/mg, the activity at 0.2 µM (3rd exp (12-20-18), BDQ in DMSO, Bedaquiline 0.2 μM, 60 min, read-out: % activity) was 59.5% and the Cyanide sensitive (3rd exp (12-20-18), BDQ in DMSO, Bedaquiline 0.5 μM, 60 min) was 3.146 nmol/min/mg. It also gave an activity at 0.5 µM (3rd exp (12-20-18), BDQ in DMSO, Bedaquiline 0.5 μM, 60 min, read-out: % activity) of 33.4%, a Cyanide sensitive (3rd exp (12-20-18), BDQ in DMSO, Bedaquiline 0.65 μM, 60 min) of 3.762 nmol/min/mg and an activity at 0.65 µM (3rd exp (12-20-18), BDQ in DMSO, Bedaquiline 0.65 μM, 60 min, read-out: % activity) of 40%. For the same compound, the Cyanide sensitive (3rd exp (12-20-18), BDQ in DMSO, Bedaquiline 0.85 μM, 60 min) was 3.062 nmol/min/mg, the activity at 0.85 µM (3rd exp (12-20-18), BDQ in DMSO, Bedaquiline 0.85 μM, 60 min, read-out: % activity) was 32.5% and the Cyanide sensitive (3rd exp (12-20-18), BDQ in DMSO, Bedaquiline 1 μM, 60 min) was -0.07798 nmol/min/mg. The activity at 1 µM (3rd exp (12-20-18), BDQ in DMSO, Bedaquiline 1 μM, 60 min, read-out: % activity) was -0.828%, the Cyanide sensitive (3rd exp (12-20-18), BDQ in DMSO, Bedaquiline 2 μM, 60 min) was 0.1555 nmol/min/mg and the activity at 2 µM (3rd exp (12-20-18), BDQ in DMSO, Bedaquiline 2 μM, 60 min, read-out: % activity) was 1.65%. The Cyanide sensitive (3rd exp (12-20-18), BDQ in DMSO, Bedaquiline 5 μM, 60 min) was -0.3777 nmol/min/mg, the activity at 5 µM (3rd exp (12-20-18), BDQ in DMSO, Bedaquiline 5 μM, 60 min, read-out: % activity) was -4.01% and the activity at 0.0005 µM (3rd exp (18_12_20), BDQ 0.0005 uM, read-out: Cyanide sensitive % activity) was 81.5%. It also gave an activity at 0.005 µM (3rd exp (18_12_20), BDQ 0.005 uM, read-out: Cyanide sensitive % activity) of 88.5%, an activity at 0.2 µM (3rd exp (18_12_20), BDQ 0.2 uM, read-out: Cyanide sensitive % activity) of 59.5% and an activity at 0.5 µM (3rd exp (18_12_20), BDQ 0.5 uM, read-out: Cyanide sensitive % activity) of 33.4%. For the same compound, the activity at 0.65 µM (3rd exp (18_12_20), BDQ 0.65 uM, read-out: Cyanide sensitive % activity) was 40%, the activity at 0.85 µM (3rd exp (18_12_20), BDQ 0.85 uM, read-out: Cyanide sensitive % activity) was 32.5% and the activity at 1 µM (3rd exp (18_12_20), BDQ 1 uM, read-out: Cyanide sensitive % activity) was -0.84%. For the same compound, the activity at 2 µM (3rd exp (18_12_20), BDQ 2 uM, read-out: Cyanide sensitive % activity) was 1.68%, the activity at 5 µM (3rd exp (18_12_20), BDQ 5 uM, read-out: Cyanide sensitive % activity) was -4.13% and the Cyanide sensitive (4th exp (12-12-28), BDQ in DMSO, Bedaquiline 5e-6 μM, 60 min) was 6.055 nmol/min/mg. For the same compound, the Cyanide sensitive (4th exp (12-12-28), BDQ in DMSO, Bedaquiline 5e-5 μM, 60 min) was 5.641 nmol/min/mg, the Cyanide sensitive (4th exp (12-12-28), BDQ in DMSO, Bedaquiline 0.0005 μM, 60 min) was 4.664 nmol/min/mg and the activity at 0.0005 µM (4th exp (12-12-28), BDQ in DMSO, Bedaquiline 0.0005 μM, 60 min, read-out: % activity) was 52.7%. It also gave a Cyanide sensitive (4th exp (12-12-28), BDQ in DMSO, Bedaquiline 0.005 μM, 60 min) of 4.551 nmol/min/mg, an activity at 0.005 µM (4th exp (12-12-28), BDQ in DMSO, Bedaquiline 0.005 μM, 60 min, read-out: % activity) of 51.4% and a Cyanide sensitive (4th exp (12-12-28), BDQ in DMSO, Bedaquiline 0.1 μM, 60 min) of 6.3 nmol/min/mg. The activity at 0.1 µM (4th exp (12-12-28), BDQ in DMSO, Bedaquiline 0.1 μM, 60 min, read-out: % activity) was 71.2%, the Cyanide sensitive (4th exp (12-12-28), BDQ in DMSO, Bedaquiline 0.2 μM, 60 min) was 4.408 nmol/min/mg and the activity at 0.2 µM (4th exp (12-12-28), BDQ in DMSO, Bedaquiline 0.2 μM, 60 min, read-out: % activity) was 49.8%. It also gave a Cyanide sensitive (4th exp (12-12-28), BDQ in DMSO, Bedaquiline 0.5 μM, 60 min) of 4.526 nmol/min/mg, an activity at 0.5 µM (4th exp (12-12-28), BDQ in DMSO, Bedaquiline 0.5 μM, 60 min, read-out: % activity) of 51.2% and a Cyanide sensitive (4th exp (12-12-28), BDQ in DMSO, Bedaquiline 0.65 μM, 60 min) of 3.3225 nmol/min/mg. It also gave an activity at 0.65 µM (4th exp (12-12-28), BDQ in DMSO, Bedaquiline 0.65 μM, 60 min, read-out: % activity) of 37.6%, a Cyanide sensitive (4th exp (12-12-28), BDQ in DMSO, Bedaquiline 1 μM, 60 min) of 0.7592 nmol/min/mg and an activity at 1 µM (4th exp (12-12-28), BDQ in DMSO, Bedaquiline 1 μM, 60 min, read-out: % activity) of 8.58%. The Cyanide sensitive (4th exp (12-12-28), BDQ in DMSO, Bedaquiline 2 μM, 60 min) was 0.2448 nmol/min/mg, the activity at 2 µM (4th exp (12-12-28), BDQ in DMSO, Bedaquiline 2 μM, 60 min, read-out: % activity) was 2.77% and the Cyanide sensitive (4th exp (12-12-28), BDQ in DMSO, Bedaquiline 5 μM, 60 min) was -0.2191 nmol/min/mg. It also gave an activity at 5 µM (4th exp (12-12-28), BDQ in DMSO, Bedaquiline 5 μM, 60 min, read-out: % activity) of -2.48%, a Cyanide sensitive (4th exp (12-12-28), BDQ in DMSO, Bedaquiline 10 μM, 60 min) of -0.1822 nmol/min/mg and an activity at 10 µM (4th exp (12-12-28), BDQ in DMSO, Bedaquiline 10 μM, 60 min, read-out: % activity) of -2.06%. The Repeted points [2] was 6.965 nmol/min/mg, the “Repeted points % activity” value [2] was 78.7332% and the Repeted points [3] was 6.5997 nmol/min/mg. The “Repeted points % activity” value [3] was 74.6041%, the Repeted points (4th exp (12-12-28), repeated point, Bedaquiline 1 μM, 60 min) was 0.7668 nmol/min/mg and the activity at 1 µM (4th exp (12-12-28), repeated point, Bedaquiline 1 μM, 60 min, read-out: Repeted points % activity) was 8.67%. For the same compound, the activity at 10 µM (4th exp (18_12_26) duplicate, BDQ 10 uM, read-out: Cyanide sensitive % activity) was -2.1%, the activity at 0.1 µM (4th exp (18_12_26), BDQ 0.1 uM, read-out: Cyanide sensitive % activity) was 71.2% and the activity at 0.2 µM (4th exp (18_12_26), BDQ 0.2 uM, read-out: Cyanide sensitive % activity) was 49.8%. It also gave an activity at 0.5 µM (4th exp (18_12_26), BDQ 0.5 uM, read-out: Cyanide sensitive % activity) of 51.2% and an activity at 0.65 µM (4th exp (18_12_26), BDQ 0.65 uM, read-out: Cyanide sensitive % activity) of 37.6%.
